Assay results from patent publication US20240391931A1 (Bristol-Myers Squibb Company, priority 2021, published 2024).

Legend:
HER2YVMA = HER2YVMA (Homo sapiens, UniProt P04626, INS775YVMA); experiment: HER2 signaling (pHER2) in Hek293-HER2YVMA cells; type: cell-based; set-up: expressed in transfected cells; host or cells: HEK293 (pool), Ba/F3 (clones), BEAS2B (clones); lentiviral vector pCDH-CMV-MCS-EF1-Neo; conditions: 1.5 hr compound, 1% FBS, read-out: HEKYVMA pHER2 EC50
Outline: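 Lentivirally transduced HER2YVMA lines (HEK293 pool; BEAS2B clone) treated 1.5 h at 37 °C in 1% FBS medium with compound at 0.0005–1.1 μM. Lysates read by MSD immunoassay for pHER2 (Tyr1248) normalized to total HER2, as % DMSO control; EC50 from variable-slope sigmoidal fit.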

[1] = molecular target: T1, HER2 wildtype (WT) protein (Homo sapiens, UniProt P04626); experiment: HER2 signaling (pHER2 Tyr1248/total HER2 MSD) in N87 cells; type: cell-based; conditions: 1.5 hr compound, 1% FBS
T1 construct: BT474 and N87 cell lines which endogenously overexpress the HER2 wildtype (WT) protein; endogenous in cells; host or cells: BT474, N87
T1 sequence (P04626 23-1255): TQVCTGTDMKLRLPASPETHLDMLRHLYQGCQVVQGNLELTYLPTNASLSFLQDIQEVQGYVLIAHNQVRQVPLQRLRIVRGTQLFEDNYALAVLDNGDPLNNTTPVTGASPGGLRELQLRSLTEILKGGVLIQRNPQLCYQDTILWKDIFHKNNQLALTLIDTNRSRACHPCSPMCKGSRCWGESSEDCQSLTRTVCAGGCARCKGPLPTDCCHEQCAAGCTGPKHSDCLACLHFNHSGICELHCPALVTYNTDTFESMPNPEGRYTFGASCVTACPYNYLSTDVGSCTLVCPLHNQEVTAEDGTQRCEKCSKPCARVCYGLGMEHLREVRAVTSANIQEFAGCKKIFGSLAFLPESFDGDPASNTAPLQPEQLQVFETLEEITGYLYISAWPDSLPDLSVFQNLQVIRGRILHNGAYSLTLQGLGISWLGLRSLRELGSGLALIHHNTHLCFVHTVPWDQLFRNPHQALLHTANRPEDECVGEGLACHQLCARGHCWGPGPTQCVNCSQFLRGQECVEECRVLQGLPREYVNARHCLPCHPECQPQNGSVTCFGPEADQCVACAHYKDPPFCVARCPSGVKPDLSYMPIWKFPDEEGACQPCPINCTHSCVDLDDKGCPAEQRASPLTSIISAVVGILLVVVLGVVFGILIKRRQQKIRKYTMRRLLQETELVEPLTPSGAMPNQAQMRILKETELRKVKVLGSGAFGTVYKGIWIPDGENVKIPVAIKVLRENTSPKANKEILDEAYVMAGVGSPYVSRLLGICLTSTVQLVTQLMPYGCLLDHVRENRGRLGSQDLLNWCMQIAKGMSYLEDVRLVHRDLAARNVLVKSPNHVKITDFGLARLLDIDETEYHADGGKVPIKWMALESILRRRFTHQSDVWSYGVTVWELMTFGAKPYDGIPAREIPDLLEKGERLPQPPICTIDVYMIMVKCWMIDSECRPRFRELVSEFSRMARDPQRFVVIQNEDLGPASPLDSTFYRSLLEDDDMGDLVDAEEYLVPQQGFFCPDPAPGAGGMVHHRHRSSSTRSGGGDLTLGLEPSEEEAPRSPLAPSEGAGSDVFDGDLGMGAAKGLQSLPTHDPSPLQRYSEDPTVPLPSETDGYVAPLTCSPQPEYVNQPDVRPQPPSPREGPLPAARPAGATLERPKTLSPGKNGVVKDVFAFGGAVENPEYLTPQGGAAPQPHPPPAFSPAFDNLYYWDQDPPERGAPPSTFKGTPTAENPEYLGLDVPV
Outline: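 BT474, N87 (HER2 WT) and NCI-H1781 (HER2 G776delinsVC) cells were treated for 1.5 h at 37° C in 1% FBS medium with compound at 0.0005–1.1 μM. pHER2 Tyr1248 was measured by MSD on whole-cell lysates and normalized to total HER2 as % DMSO. EC50 came from a variable-slope sigmoidal fit.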

Chain of HER2YVMA (P04626 with tags, fused parts or gaps INS775YVMA): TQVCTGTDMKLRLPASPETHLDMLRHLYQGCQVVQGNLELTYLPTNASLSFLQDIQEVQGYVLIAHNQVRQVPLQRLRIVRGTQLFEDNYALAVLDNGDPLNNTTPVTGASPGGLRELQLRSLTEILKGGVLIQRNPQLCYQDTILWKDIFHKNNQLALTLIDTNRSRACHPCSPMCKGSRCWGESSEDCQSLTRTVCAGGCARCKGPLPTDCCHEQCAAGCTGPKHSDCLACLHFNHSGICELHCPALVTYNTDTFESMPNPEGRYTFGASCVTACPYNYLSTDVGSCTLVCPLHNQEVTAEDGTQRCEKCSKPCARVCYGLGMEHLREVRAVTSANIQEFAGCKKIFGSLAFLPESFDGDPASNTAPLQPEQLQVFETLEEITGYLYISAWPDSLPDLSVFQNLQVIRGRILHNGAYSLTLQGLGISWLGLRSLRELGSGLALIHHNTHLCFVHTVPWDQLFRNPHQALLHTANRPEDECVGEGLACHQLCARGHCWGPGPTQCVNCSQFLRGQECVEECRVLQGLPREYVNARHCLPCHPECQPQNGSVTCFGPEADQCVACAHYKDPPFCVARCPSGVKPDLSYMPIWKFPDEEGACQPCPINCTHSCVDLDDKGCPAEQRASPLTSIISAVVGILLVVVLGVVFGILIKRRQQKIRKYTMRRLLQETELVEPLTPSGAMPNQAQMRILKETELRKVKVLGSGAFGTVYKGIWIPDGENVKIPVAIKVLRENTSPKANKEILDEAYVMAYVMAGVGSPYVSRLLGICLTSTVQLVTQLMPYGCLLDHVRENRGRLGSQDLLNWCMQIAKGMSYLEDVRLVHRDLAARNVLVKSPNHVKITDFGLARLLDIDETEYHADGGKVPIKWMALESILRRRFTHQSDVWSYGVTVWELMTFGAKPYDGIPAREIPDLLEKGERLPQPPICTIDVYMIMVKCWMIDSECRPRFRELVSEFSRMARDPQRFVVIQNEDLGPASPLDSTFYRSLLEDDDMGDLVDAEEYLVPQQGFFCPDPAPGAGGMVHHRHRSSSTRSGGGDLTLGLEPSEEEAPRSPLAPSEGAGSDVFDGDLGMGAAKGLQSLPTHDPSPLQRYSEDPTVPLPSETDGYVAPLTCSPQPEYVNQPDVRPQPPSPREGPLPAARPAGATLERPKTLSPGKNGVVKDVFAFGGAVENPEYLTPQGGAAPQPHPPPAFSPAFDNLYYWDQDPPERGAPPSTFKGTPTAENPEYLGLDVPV

Row | Compound | EC50 (HER2YVMA) | EC50 [1]
1 | Cc1ccc(Oc2ccc(Nc3ncnc4sc5c(c34)CCN(C(=O)/C=C/CN3CC4C(CO)C4C3)C5)cc2C)cn1 (stereo not drawn) [Compound 34] | < 100 nM | < 100 nM
2 | COc1ccc(Oc2ccc(Nc3ncnc4sc5c(c34)CCN(C(=O)/C=C/CN(C)C)C5)cc2C)cn1 [Compound 95, (E)-4-(Dimethylamino)-1-(4-((4-((6-methoxypyridin-3-yl)oxy)-3-methylphenyl)amino)-5,6-dihydropyrido[4′,3′:4,5]thieno[2,3-d]pyrimidin-7(8H)-yl)but-2-en-1-one] | < 100 nM | < 100 nM
3 | Cc1ccc(Oc2ccc(Nc3ncnc4sc5c(c34)CCN(C(=O)/C=C/CN(C)C)CC5)cc2C)cn1 [Compound 100, (E)-4-(dimethylamino)-1-(4-((3-methyl-4-((6-methylpyridin-3-yl)oxy)phenyl)amino)-8,9-dihydro-5H-pyrimido[5′,4′:4,5]thieno[2,3-d]azepin-7(6H)-yl)but-2-en-1-one] | < 100 nM | < 100 nM
